The values below come from patent publication US20210169984A1, “SENSITIZING CANCER TO DEATH RECEPTOR AGONISTS WITH KINASE INHIBITORS” (The Johns Hopkins University, priority 2016, published 2021).

Where a name gives a salt, the structure may show the parent alone.

Holding throughout (type): cell-based, human
In assay [1] the test system is A549 lung carcinoma cells. In words: KI library screen for TRAIL sensitization. From the text:
(§1) A library of KIs was screened for TRAIL sensitization in various TRAIL-resistant cancer cells, including: HT29 (CRC), MDA-MB-231 (breast), LNCAP (prostate), DU145 (prostate), PC3 (prostate) and A549 (lung). […] The 355 KIs comprised of compounds targeting diverse kinases, including multi kinases, RTK (receptor kinase tyrosine), PI3K (phosphinistide 3-kinase), aurora kinases, including […] (mitogen-activated protein kinase). […] The interaction between KIs and TRAIL had been previously explored in vitro with the tyrosine KI sorafenib, a drug similar to regorafenib. However, such studies were mostly performed on cellular levels and not in in vivo models, combined with systemically administered recombinant TRAIL. Although a similar structure, regorafenib was newly approved in 2012. The interactions between the three other selected KIs and TRAIL have not been previously reported, in vitro or in vivo.

Assay [2] has as its system MDA-MB-231 breast cancer cells. The assay is described as follows: KI library screen for TRAIL sensitization.
Description: as §1

In another assay the test system is HT29 (CRC) cells. In words: KI library screen for TRAIL sensitization (KI pretreatment, then TRAILPEG; MTT cell death assay). Conditions: for efficacy when combined with TRAILPEG (relative cell death, KI+TRAILPEG / KI alone): HT29 cells pretreated with KI for 24 hours before TRAILPEG; for KIs that sensitize cancer cells to TRAIL-based agents: HT-29 colorectal adenocarcinoma. For orientation: Tetrazolium assays rely on reduction of a dye to a coloured formazan, in cell work by metabolically active cells.

The subject of assay [3] is LNCAP prostate adenocarcinoma cells. In words: KI library screen for TRAIL sensitization.
Description: as §1

Description for HT29 (CRC) cells: The screening is performed using an MTT cell death assay in CRC cells with different TRAIL sensitivities.

Consider `N#CC1(c2ccc(NC(=O)c3cccnc3NCc3ccncc3)cc2)CCCC1` [Apatinib], for which the “KIs that sensitize cancer cells to TRAIL-based agents” value (“KIs that sensitize cancer cells” below) in assay [1] is reported as “Example KIs that sensitize cancer cells to TRAIL-based agents”. As to `C=CC(=O)Nc1cc2c(Nc3ccc(F)c(Cl)c3)ncnc2cc1OCCCN1CCOCC1` [Canertinib (CI-1033), Canertinib], in assay [2], the “KIs that sensitize cancer cells” value is “Example KIs that sensitize cancer cells to TRAIL-based agents”. The same measure, in the same setting: the same measure for `CC[C@@H]1C(=O)N(C)c2cnc(Nc3ccc(C(=O)N[C@H]4CC[C@H](N5CCN(CC6CC6)CC5)CC4)cc3OC)nc2N1C(C)C` [Volasertib (BI 6727), Volasertib]: “Example KIs that sensitize cancer cells to TRAIL-based agents”. Still for that read-out and setting: the same measure for `O=C1NCCc2[nH]c(-c3ccncc3)cc21` [PHA-767491]: “Example KIs that sensitize cancer cells to TRAIL-based agents”; for `Cc1cc(CN2CCN(c3c(Br)cnc4nc(-c5ccc(N6CCN(C)CC6)cc5)[nH]c34)CC2)no1` [CCT137690]: “Example KIs that sensitize cancer cells to TRAIL-based agents”. Turning to `O=c1[nH]c2ccc(Cl)cc2c(N[C@@H]2CN3CCC2CC3)c1-c1nc2ccccc2[nH]1` [CHIR-124], the “KIs that sensitize cancer cells” value in assay [1] and in assay [2] was “Example KIs that sensitize cancer cells to TRAIL-based agents” in each case. Take `COc1cccc(-c2cc(=O)c3ccccc3o2)c1N` [PD98059]: in the assay with HT29 (CRC) cells, the “efficacy when combined with TRAILPEG (relative cell death, KI+TRAILPEG / KI alone)” value is “synergistic efficacy” and the “KIs that sensitize cancer cells” value is listed as “Example KIs that sensitize cancer cells to TRAIL-based agents”. `Cc1cc(Nc2nc(N[C@@H](C)c3ccc(F)cc3)c(C#N)cc2F)[nH]n1` [AZ 960]: the “KIs that sensitize cancer cells” value in assay [2] is listed as “Example KIs that sensitize cancer cells to TRAIL-based agents”. On to `O=C(Nc1ccc(OC(F)(F)F)cc1)c1sccc1NCc1ccnc2ccccc12` [OSI-930], for which, in the assay with HT29 (CRC) cells, the “efficacy when combined with TRAILPEG (relative cell death, KI+TRAILPEG / KI alone)” value was “synergistic efficacy” and the “KIs that sensitize cancer cells” value was “Example KIs that sensitize cancer cells to TRAIL-based agents”. Consider `CCO.N#CC(=C(/N)Sc1ccccc1N)/C(C#N)=C(\N)Sc1ccccc1N` [U0126-EtOH], for which, in the assay with HT29 (CRC) cells, the “efficacy when combined with TRAILPEG (relative cell death, KI+TRAILPEG / KI alone)” value was “synergistic efficacy” and the “KIs that sensitize cancer cells” value was “Example KIs that sensitize cancer cells to TRAIL-based agents”. In the case of `CN1CC[C@H](c2c(O)cc(O)c3c(=O)cc(-c4ccccc4Cl)oc23)[C@H](O)C1` [Flavopiridol HCl], the “KIs that sensitize cancer cells” value in assay [1] and in assay [2] was “Example KIs that sensitize cancer cells to TRAIL-based agents” throughout. On to `CCS(=O)(=O)c1cccc(-c2cc(C(=O)NC3CCN(C)CC3)c(C)c3[nH]c4ncc(C)cc4c23)c1` [TAK-901], for which the “KIs that sensitize cancer cells” value in assay [2] is “Example KIs that sensitize cancer cells to TRAIL-based agents”. `Cn1c(=O)n(-c2ccc(C(C)(C)C#N)cc2)c2c3cc(-c4cnc5ccccc5c4)ccc3ncc21` [BEZ235 (NVP-BEZ235, Dactolisib), Dactolisib]: in the assay with HT29 (CRC) cells, the “efficacy when combined with TRAILPEG (relative cell death, KI+TRAILPEG / KI alone)” value is on record as “synergistic efficacy” and the “KIs that sensitize cancer cells” value is “Example KIs that sensitize cancer cells to TRAIL-based agents”. Consider `O=C(NC1CCNCC1)c1[nH]ncc1NC(=O)c1c(Cl)cccc1Cl` [AT7519], for which the “KIs that sensitize cancer cells” value in assay [1] is reported as “Example KIs that sensitize cancer cells to TRAIL-based agents”. Regarding `CNC(=O)c1ccc(-c2cnc3ncc(Cc4ccc5ncccc5c4)n3n2)cc1F` [INCB28060], the “KIs that sensitize cancer cells” value in assay [3] is on record as “Example KIs that sensitize cancer cells to TRAIL-based agents”.

Regarding `COc1cc2ncc(-c3ccccc3)nc2cc1OC` [Tyrphostin AG 1296], in assay [3], the “KIs that sensitize cancer cells” value is recorded as “Example KIs that sensitize cancer cells to TRAIL-based agents”. Take `CN(c1ncccc1CNc1nc(Nc2ccc3c(c2)CC(=O)N3)ncc1C(F)(F)F)S(C)(=O)=O` [PF-00562271]: in assay [2], the “KIs that sensitize cancer cells” value is listed as “Example KIs that sensitize cancer cells to TRAIL-based agents”. Take `Cc1cc(Nc2cc(N3CCN(C)CC3)nc(/C=C/c3ccccc3)n2)n[nH]1` [ENMD-2076]: in the assay with HT29 (CRC) cells, the “efficacy when combined with TRAILPEG (relative cell death, KI+TRAILPEG / KI alone)” value is “synergistic efficacy” and the “KIs that sensitize cancer cells” value was “Example KIs that sensitize cancer cells to TRAIL-based agents”. Consider `CS(=O)(=O)CCNCc1ccc(-c2ccc3ncnc(Nc4ccc(OCc5cccc(F)c5)c(Cl)c4)c3c2)o1` [Lapatinib (GW-572016) Ditosylate, Lapatinib], for which the “KIs that sensitize cancer cells” value in assay [1] and in assay [3] was “Example KIs that sensitize cancer cells to TRAIL-based agents” in each case. For the compound `Cc1[nH]nc2ccc(-c3cncc(OC[C@@H](N)Cc4ccccc4)c3)cc12` [A-674563], the “KIs that sensitize cancer cells” value in assay [2] was “Example KIs that sensitize cancer cells to TRAIL-based agents”. With `Cc1cnc(Nc2ccc(N3CCN(C)CC3)cc2)nc1Nc1cccc(S(=O)(=O)NC(C)(C)C)c1` [TG101209], in assay [2], the “KIs that sensitize cancer cells” value is “Example KIs that sensitize cancer cells to TRAIL-based agents”.

Consider `CC(C)CC(=O)Nc1[nH]nc2c1CN(C(=O)C1CCN(C)CC1)C2(C)C` [PHA-793887], for which, in assay [2], the “KIs that sensitize cancer cells” value was “Example KIs that sensitize cancer cells to TRAIL-based agents”. As for `CCCCOc1c(C(=O)c2c(F)cc(C)cc2F)c[nH]c2nncc1-2` [BMS-265246], the “KIs that sensitize cancer cells” value in assay [1] and in assay [2] was “Example KIs that sensitize cancer cells to TRAIL-based agents” each time. As to `CCc1cc(Nc2nccc(-c3c(-c4ccc(OC)c(C(=O)Nc5c(F)cccc5F)c4)nc4ccccn34)n2)c(OC)cc1N1CCC(N2CCN(S(C)(=O)=O)CC2)CC1` [GSK1904529A], in assay [1], the “KIs that sensitize cancer cells” value is given as “Example KIs that sensitize cancer cells to TRAIL-based agents”. Take `CCOc1cc2ncc(C#N)c(Nc3ccc(F)c(Cl)c3)c2cc1NC(=O)/C=C/CN(C)C` [Pelitinib (EKB-569), Pelitinib]: the “KIs that sensitize cancer cells” value in assay [2] is reported as “Example KIs that sensitize cancer cells to TRAIL-based agents”. With `CC(C)(C)c1cnc(CSc2cnc(NC(=O)C3CCNCC3)s2)o1` [SNS-032 (BMS-387032)], the “KIs that sensitize cancer cells” value in assay [1] and in assay [2] was “Example KIs that sensitize cancer cells to TRAIL-based agents” each time. `CC[C@H](CO)Nc1nc(NCc2ccccc2)c2ncn(C(C)C)c2n1` [Roscovitine (Seliciclib, CYC202), Roscovitine]: the “KIs that sensitize cancer cells” value in assay [2] is recorded as “Example KIs that sensitize cancer cells to TRAIL-based agents”.

Turning to `CNC(=O)c1nn(C)c2c1C(C)(C)Cc1cnc(Nc3ccc(N4CCN(C)CC4)cc3)nc1-2` [Milciclib (PHA-848125), Milciclib], in assay [2], the “KIs that sensitize cancer cells” value is “Example KIs that sensitize cancer cells to TRAIL-based agents”.

`C[C@]1(O)C[C@@H](c2nc(-c3ccc4ccc(-c5ccccc5)nc4c3)c3c(N)nccn32)C1` [OSI-906 (Linsitinib), Linsitinib]: in assay [3], the “KIs that sensitize cancer cells” value is recorded as “Example KIs that sensitize cancer cells to TRAIL-based agents”.

On to `COc1cc2ncnc(Nc3ccc(Cl)cc3F)c2cc1OC` [ZM 306416], for which the “KIs that sensitize cancer cells” value in assay [3] is “Example KIs that sensitize cancer cells to TRAIL-based agents”. In the case of `N#CCNC(=O)c1ccc(-c2ccnc(Nc3ccc(N4CCOCC4)cc3)n2)cc1` [CYT387], the “KIs that sensitize cancer cells” value in assay [2] is recorded as “Example KIs that sensitize cancer cells to TRAIL-based agents”. Same read-out and setting: under `Cc1ccc([N+](=O)[O-])cc1S(=O)(=O)N(C)/N=C/c1cnc2ccc(Br)cn12` [PIK-75] stands “Example KIs that sensitize cancer cells to TRAIL-based agents”. Still for that read-out and setting: the same measure for `Cc1cc(Nc2cc(CN3CCOCC3)c3nc(C)c(Cc4ccc(Cl)cc4F)n3n2)n[nH]1` [LY2784544]: “Example KIs that sensitize cancer cells to TRAIL-based agents”. With `CCN1CCN(c2ccc(Nc3cc(N(C)C(=O)Nc4c(Cl)c(OC)cc(OC)c4Cl)ncn3)cc2)CC1` [BGJ398 (NVP-BGJ398)], the “KIs that sensitize cancer cells” value in assay [1] is “Example KIs that sensitize cancer cells to TRAIL-based agents”. For `CCN(CC)CCNC(=O)c1c(C)[nH]c(/C=C2\C(=O)Nc3ccc(F)cc32)c1C` [Sunitinib Malate], the “KIs that sensitize cancer cells” value in assay [3] was “Example KIs that sensitize cancer cells to TRAIL-based agents”. As for `Cc1ncc(-c2ccnc(Nc3ccc(S(C)(=O)=O)cc3)n2)n1C(C)C` [AZD5438], in assay [1], the “KIs that sensitize cancer cells” value is reported as “Example KIs that sensitize cancer cells to TRAIL-based agents”.

Consider `CC[C@H](Nc1ncnc2[nH]cnc12)c1nc2cccc(F)c2c(=O)n1-c1ccccc1` [CAL-101 (Idelalisib, GS-1101), Idelalisib], for which, in the assay with HT29 (CRC) cells, the “efficacy when combined with TRAILPEG (relative cell death, KI+TRAILPEG / KI alone)” value was “synergistic efficacy” and the “KIs that sensitize cancer cells” value is on record as “Example KIs that sensitize cancer cells to TRAIL-based agents”. On to CHIR-98014, for which the “KIs that sensitize cancer cells” value in assay [2] was “Example KIs that sensitize cancer cells to TRAIL-based agents”.
